Consider 3 molecules from patent US20130195870A1, “ERBB3 Mutations In Cancer” (Genentech, Inc., priority 2011, published 2013).

The test system of assay [1] is BaF3 cells stably expressing ERBB3 mutants together with ERBB2. The assay is described as follows: Colony formation assay (anchorage-independent growth), BaF3 cells. In kind it is cell-based, mouse. As for the experimental part: BaF3 cells stably expressing EGFR (2×10^5) or ERBB2 (50,000) along with ERBB3 wild-type or mutants, was mixed with 2 mls of IL3-free Methylcellulose ([…] Technologies, Canada) and plated on to 6 well plates and when indicated, cells were treated with different ERBB antibodies or tyrosine kinase or PI3K small molecule inhibitors before plating. Plates were then incubated at 37° C. for 2 weeks. For MCF10A colony formation, 20,000 MCF10A cells stably expressing ERBB3-WT or mutants alone or in combination with EGFR or ERBB2 were mixed with 0.35% agar in DMEM: F12 lacking serum, EGF, and NRG1 and plated on 0.5% base agar. Plates were then incubated at 37° C. for 3 weeks. The presence of colonies was assessed using Gel count imager (Oxford Optronix Ltd, UK). The number of colonies in each plate was quantified using Gel count software (Oxford Optronix Ltd, UK).

The test system is the same in assay [2]. The assay is described as follows: Survival and proliferation assay, IL-3 independent BaF3 cells. In kind it is cell-based, mouse. The conditions noted are these: for blocking oncogenic signaling by ERBB3 mutants: summary statement. Here is the method:
BaF3 cells stably expressing the wild-type and mutant ERBB3 alone or together with EGFR or ERBB2, were washed twice in PBS and plated in 3×96-well plates in replicates of eight in complete RPMI medium without IL3. As needed cells were then treated with different concentration of NRG1 and anti-NRG1 antibody or different ERBB antibodies, tyrosine kinase or PI3K small molecule inhibitors to test their effects on survival or cell proliferation, where relevant as depicted in the figures. Viable cells at 0 h and 120 h were determined using Cell Titer-Glo luminescence cell viability kit (Promega Corp., WI) and Synergy 2 (Biotek Instrument, CA) luminescence plate reader. All the cell number values were normalized against Oh values. In order to assess proliferation of MCF10A stably expressing ERBB3-WT or mutants were washed twice in PBS and 5000 cells plated in 96-well plates in replicates of eight in triplicates serum-free media and allowed to proliferate for 5 days. Cell numbers were measure at day 0 and day 5 using the luminescence cell viability kit. […] Mean and statistical significance was determined using GraphPad V software (GraphPad, CA).

Where [3] appears, read: Q809R kinase domain ERBB3 mutant, at the tested dose.
The mark [4] stands for this setting: all the mutants tested except Q809R.
Setting [5] is: all the ERBB3 mutants tested, co-expressed with ERBB2, no IL-3.

Entries after “also recorded” stand apart in the source; their conditions may differ.

As to `CS(=O)(=O)N1CCN(Cc2cc3nc(-c4cccc5[nH]ncc45)nc(N4CCOCC4)c3s2)CC1` [GDC-0941], the blocking colony formation result in assay [1] (ERBB3 ECD mutants) is listed as “very effective”; in assay [1] (setting [3]), “only partially effective; also recorded: only modestly effective”; in assay [1] (setting [4]), “effective”. In addition, the blocking cell proliferation entry was “very effective” in assay [2] (ERBB3 ECD mutants), “only partially effective; also recorded: only modestly effective” in assay [2] (setting [3]) and “effective” in assay [2] (setting [4]). Moreover, the “blocking oncogenic signaling by ERBB3 mutants” value in assay [2] (in vitro and in vivo, majority/most of the ERBB3 mutants tested) is recorded as “quite active”; in assay [2] (kinase domain mutant Q809R), “not as effective; also recorded: reduced efficacy”.

With `CS(=O)(=O)CCNCc1ccc(-c2ccc3ncnc(Nc4ccc(OCc5cccc(F)c5)c(Cl)c4)c3c2)o1` [lapatinib], in assay [1] (setting [5]), the blocking colony formation result is given as “quite effective”. The blocking cell proliferation entry in assay [2] (setting [5]) is recorded as “quite effective”.

B1: MEHD7945A: a dual ERBB3/EGFR antibody that blocks ligand binding (binds domain III of EGFR and ERBB3) (antibody, V domains shown)
VH: EVQLVESGGGLVQPGGSLRLSCAASGFTLSGDWIHWVRQAPGKGLEWVGEISAAGGYTDYADSVKGRFTISADTSKNTAYLQMNSLRAEDTAVYYCARESRVSFEAAMDYWGQGTLVTVSS
VL: DIQMTQSPSSLSASVGDRVTITCRASQNIATDVAWYQQKPGKAPKLLIYSASFLYSGVPSRFSGSGSGTDFTLTISSLQPEDFATYYCQQSEPEPYTFGQGTKVEIKR
B1: the blocking colony formation result in assay [1] (setting [5]) is “effective”.
